Reference: article PMC12348835, “Design, Docking Analysis, and Structure–Activity Relationship of Ferrocene-Modified Tyrosine Kinase Inhibitors: Insights into BCR-ABL Interactions” (Molecules, 2025)

Legend:
K-562 = experiment: MTT cell viability assay, K-562; format: cell-based, human; conditions: 72 h, ± standard deviation
Protocol: (§1) Cell viability was determined using the MTT colorimetric assay. […] Statistical significance was determined at p ≤ 0.05.

AR-230 = experiment: MTT cell viability assay, AR-230; format: cell-based, human; conditions: 72 h, ± standard deviation
Protocol: as §1

BV-173 = experiment: MTT cell viability assay, BV-173; format: cell-based, human; conditions: 72 h, ± standard deviation
Protocol: as §1

LAMA-84 = experiment: MTT cell viability assay, LAMA-84; format: cell-based, human; conditions: 72 h, ± standard deviation
Protocol: as §1

CCL-1 = experiment: MTT cell viability assay, normal fibroblasts CCL-1; format: cell-based, murine; conditions: 72 h, non-malignant fibroblasts, ± standard deviation
Protocol: as §1

MDA-MB-231 = test system: MDA-MB-231; design: method as in doi:10.2533/chimia.2007.716; conditions: hormone-independent breast cancer cells; cited from earlier work
[1] = MTT cell viability assay, normal fibroblasts CCL-1; format: cell-based, murine; conditions: mouse, CCL-1 normal fibroblast cells, non-malignant fibroblasts, ± standard deviation
Protocol: as §1

| SMILES | IC50 (K-562) [µM] | IC50 (AR-230) [µM] | IC50 (BV-173) [µM] | IC50 (LAMA-84) [µM] | IC50 (CCL-1) [µM] | IC50 (MDA-MB-231) [µM] | IC50 at 72 h [1] [µM] |
| --- | --- | --- | --- | --- | --- | --- | --- |
| Cc1cn(-c2cc(NC(=O)c3ccc(C)c(Nc4nccc(-[c-]5cccc5)n4)c3)cc(C(F)(F)F)c2)cn1.[Fe+2].c1cc[cH-]c1 [Compound 9, 4-Methyl-N-(3-(4-methyl-1H-imidazol-1-yl)-5-(trifluoromethyl)phenyl)-3-((4-ferrocenylpyrimidin-2-yl)amino)benzamide] | 25.9 ± 2.9 | 144 ± 10.6 | 33.6 ± 2.3 | 25.4 ± 2.4 | > 200 | – | – |
| CCC(=C(c1ccc(O)cc1)c1ccc(OCCCN(C)C)cc1)[c-]1cccc1.[Fe+2].c1cc[cH-]c1 [Hydroxy-ferrocifen] | – | – | – | – | – | 0.5 | – |
| CC/C(=C(\c1ccc(O)cc1)c1ccc(OCCN(C)C)cc1)c1ccccc1 [Hydroxy-tamoxifen] | – | – | – | – | – | 30 | – |
| Cc1ccc(NC(=O)c2ccc(CN3CCN(C)CC3)cc2)cc1Nc1nccc(-c2cccnc2)n1 [imatinib, reference compound] | – | – | – | – | – | – | > 200 |

Now from value to molecule, other results behind:

| IC50 (K-562) [µM] | SMILES | IC50 (AR-230) [µM] | IC50 (BV-173) [µM] | IC50 (LAMA-84) [µM] | IC50 (CCL-1) [µM] | IC50 (MDA-MB-231) [µM] | IC50 at 72 h [1] [µM] |
| --- | --- | --- | --- | --- | --- | --- | --- |
| 29.9 ± 3.1 | Cc1ccc(NC(=O)c2ccc(CN3CCN(C)CC3)cc2)cc1Nc1nccc(-[c-]2cccc2)n1.[Fe+2].c1cc[cH-]c1 [Compound 6, N-(4-Methyl-3-((4-ferrocenylpyrimidin-2-yl)amino)phenyl)-4-((4-methylpiperazin-1-yl)methyl)benzamide] | 5.9 ± 0.2 | 33.6 ± 2.1 | 25.4 ± 2.9 | 55.7 ± 9.5 | – | – |
| > 200 | Cc1ccc(NC(=O)[c-]2cccc2)cc1Nc1nccc(-c2cccnc2)n1.[Fe+2].c1cc[cH-]c1 [Compound 14, N-(4-Methyl-3-((4-(pyridin-3-yl)pyrimidin-2-yl)amino)phenyl)ferrocenecarboxamide] | 5.1 ± 1.3 | 17.9 ± 3.1 | 27.3 ± 1.8 | > 200 | – | – |
| > 200 | Cc1ccc(C(=O)N[c-]2cccc2)cc1Nc1nccc(-c2cccnc2)n1.[Fe+2].c1cc[cH-]c1 [Compound 18, N-Ferrocenyl-4-methyl-3-((4-(pyridin-3-yl)pyrimidin-2-yl)amino)benzamide] | 5.1 ± 0.9 | 15.1 ± 2.9 | 26.8 ± 3.2 | 60.2 ± 8.3 | – | – |
